In assay [1] the test system is SNL-induced tactile allodynia. The experiment in a line: Spinal nerve ligation (SNL) model of neuropathic pain. As to conditions: rat SNL, about 30 mg/kg i.p., 30 minutes or more before testing. The class given is in vivo, Sprague-Dawley rats. The text has this: (§1) Adult male Sprague-Dawley rats (250-300 g body weight, Charles River Laboratories, Portage, Mich.) were used. Animal handling and experimental protocols were approved by the Institutional Animal Care and Use Committee (IACUC) at Abbott Laboratories. For all surgical procedures, animals were maintained under isoflurane anesthesia (4-5% to induce, 1-3% to maintain), and the incision sites were sterilized using a 10% povidone-iodine solution prior to and after surgeries.
Tactile (mechanical) allodynia was measured using calibrated von Frey filaments (Stoelting, Wood Dale, Ill.) as described in Chaplan, S. R., F. W. Bach, J. M. Pogrel, J. M. Chung and T. L. Yaksh, 1994, Quantitative assessment of tactile allodynia in the rat paw, J. Neurosci. Methods, 53, 55. Rats were placed into inverted individual plastic containers (20×12.5×20 cm) on top of a suspended wire mesh grid, and acclimated to the test chambers for 20 minutes. The von Frey filaments were presented perpendicularly to the plantar surface of the selected hind paw, and then held in this position for approximately 8 seconds with enough force to cause a slight bend in the filament. Positive responses include an abrupt withdrawal of the hind paw from the stimulus, or flinching behavior immediately following removal of the stimulus. […]

The target of assay [2] is T1, KCNQ 2/3 channels (HEK293 cells stably expressing human KCNQ2 and KCNQ3 subunits) (Homo sapiens, UniProt O43525+O43526).
T1 construct: expressed in transfected cells; host or cells: HEK293
The experiment in a line: KCNQ2/3 channel activation, thallium flux FLIPR assay (BTC-AM dye). In kind it is cell-based. As to conditions: for Emax: HEK293, maximum response relative to response of retigabine at 10 μM (set at 100%), read-out: Max. %; for EC50: HEK293 cells expressing human KCNQ2 and KCNQ3, FLIPR thallium flux. A digest of the protocol: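 HEK293 cells stably expressing human KCNQ2/KCNQ3 were loaded with BTC-AM and exposed to compound for 4 min in pH 7.3 gluconate buffer with ouabain. Thallium flux was triggered with 6 mM TlNO3 and 10 mM K2SO4 (stock additions) and fluorescence (ex 488, em 540 nm) recorded for 3 min. EC50 came from responses over baseline; maximal response is relative to 10 μM retigabine (100%).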

In assay [3] the test system is CCI-induced mechanical allodynia. The experiment in a line: Chronic constriction injury (CCI) model of neuropathic pain (Bennett model). The class given is in vivo, Sprague-Dawley rats. As to conditions: rat CCI, about 30 mg/kg i.p., 30 minutes or more before testing.
Source text: as §1
Tactile (mechanical) allodynia was measured using calibrated von Frey filaments (Stoelting, Wood Dale, Ill.) as described in Chaplan, S. R., F. W. Bach, J. M. Pogrel, J. M. Chung and T. L. Yaksh, 1994, Quantitative assessment of tactile allodynia in the rat paw, J. Neurosci. Methods, 53, 55. Rats were placed into inverted individual plastic containers (20×12.5×20 cm) on top of a suspended wire mesh grid, and acclimated to the test chambers for 20 minutes. The von Frey filaments were presented perpendicularly to the plantar surface of the selected hind paw, and then held in this position for approximately 8 seconds with enough force to cause a slight bend in the filament. Positive responses include an abrupt withdrawal of the hind paw from the stimulus, or flinching behavior immediately following removal of the stimulus.
A model of chronic constriction injury-induced (CCI) neuropathic pain was produced by following the method of Bennett and Xie (1988, Pain, 33, 87-107). The right common sciatic nerve was isolated at mid-thigh level, and loosely ligated by 4 chromic gut (5-0) ties separated by an interval of 1 mm. Sham rats can underwent the same procedure, but without sciatic nerve constriction. All animals can be left to recover for at least 2 weeks and no more than 5 weeks prior to testing of mechanical allodynia. Compounds were injected (i.p.) 30 minutes or more before testing.

Assay [4] has as its system Capsaicin-induced secondary mechanical hyperalgesia / tactile allodynia. The assay can be described thus: Capsaicin-induced secondary mechanical hypersensitivity. In kind it is in vivo, Sprague-Dawley rats. The following applies: rat, about 30 mg/kg i.p., 30 minutes before testing, von Frey.
Source text: as §1
Rats were allowed to acclimate to the study room for 1 hour. They were then briefly restrained, and capsaicin was administered at 10 μg in 10 μL of vehicle (10% ethanol and 2-hydroxypropyl cyclodextrin) by intraplantar injection into the center of the right hind paw. Secondary mechanical hyperalgesia was measured at the heel away from the site of injection at 180 minutes following capsaicin (Joshi et al., 2006, Neuroscience 143, 587-596). Compounds were injected (i.p.) 30 minutes before testing (150 minutes post-capsaicin).
Tactile (mechanical) allodynia was measured using calibrated von Frey filaments (Stoelting, Wood Dale, Ill.) as described in Chaplan, S. R., F. W. Bach, J. M. Pogrel, J. M. Chung and T. L. Yaksh, 1994, Quantitative assessment of tactile allodynia in the rat paw, J. Neurosci. Methods, 53, 55. […]
Tactile allodynia was measured as described above.

Here are results for six compounds from patent US8609669B2, “Potassium channel modulators” (AbbVie Inc., priority 2010, dated 2013).

Molecules are shown by their SMILES. Some results are limits rather than exact numbers.

For `O=C(CCC1CCCC1)Nc1nn2cccnc2c1-c1ccc(Cl)cc1` [Example 7, N-[3-(4-chlorophenyl)pyrazolo[1,5-a]pyrimidin-2-yl]-3-cyclopentylpropanamide], the “change in paw withdrawal latency versus vehicle” value (shortened to “change”) in assay [1] is on record as “statistically significant change”. In assay [2], the Emax was 150% and the concentration for a half-maximal effect (EC50) was 100 to 500 nM.
On to `Cc1cnc2c(-c3ccc(F)c(C)c3)c(NC(=O)CCC3CCCCC3)nn2c1` [Example 35, 3-cyclohexyl-N-[3-(4-fluoro-3-methylphenyl)-6-methylpyrazolo[1,5-a]pyrimidin-2-yl]propanamide], for which, in assay [3], the “change” value is on record as “statistically significant change”. Also, in assay [2], the Emax was 116% and the EC50 was less than 100 nM.
Take `CC(C)(C)CC(=O)Nc1nn2cccnc2c1-c1ccc(OC(F)(F)F)cc1` [Example 1, 3,3-dimethyl-N-(3-(4-(trifluoromethoxy)phenyl)pyrazolo[1,5-a]pyrimidin-2-yl)butanamide]: the “change” value in assay [4] and in assay [3] was “statistically significant change” each time.
For the compound `Cc1ccnc2c(-c3ccc(OC(F)(F)F)cc3)c(NC(=O)Cc3ccc(F)cc3)nn12` [Example 9, 2-(4-fluorophenyl)-N-{7-methyl-3-[4-(trifluoromethoxy)phenyl]pyrazolo[1,5-a]pyrimidin-2-yl}acetamide], the “change” value in assay [1] is given as “statistically significant change”. In addition, the “change” value in assay [3] was “statistically significant change”. Also, in assay [2], the Emax came out at 119% and the EC50 is 500 to 1000 nM.
Consider `CC(C)(C)CC(=O)Nc1nn2cccnc2c1-c1cccc(OC(F)(F)F)c1` [Example 22, 3,3-dimethyl-N-{3-[3-(trifluoromethoxy)phenyl]pyrazolo[1,5-a]pyrimidin-2-yl}butanamide], for which, in assay [2], the Emax stood at 141% and the concentration for a half-maximal effect (EC50) is 1000 to 10000 nM.
Regarding `O=C(CC12CC3CC(CC(C3)C1)C2)Nc1nn2cccnc2c1-c1ccc(Cl)cc1` [Example 162, 2-(adamantan-1-yl)-N-[3-(4-chlorophenyl)pyrazolo[1,5-a]pyrimidin-2-yl]acetamide], in assay [2], the Emax was 128% and the EC50 was in the range of 500 to 1000 nM.

By EC50 is commonly meant the concentration needed to bring the measured effect to its halfway point.
